Assay results published in patent US11214803B2, “Modulators of YAP1 expression” (Ionis Pharmaceuticals, Inc., priority 2019, dated 2022).
Strand notation (5' to 3'): a small letter for the sugar, then the base; units joined by * are phosphorothioate-linked, units joined directly phosphodiester-linked; [ ] holds rarer units or linkages, { } end groups; capitals alone tell only the bases. e = 2'-O-(2-methoxyethyl) (MOE); k = constrained ethyl (cEt); [5mC] = 5-methylcytosine; d = 2'-deoxy (DNA); m = 2'-O-methyl

Test system: Yap1 mRNA
Assay: Dose-dependent inhibition of human Yap1 in SNU-449 cells (Example 9, RTS36584)
Format: cell-based
Conditions: free uptake; for % UTC (Yap1 mRNA): approximately 48 hours; for IC50: linear regression on a log/linear plot
Experimental: Modified oligonucleotides described in the studies above were tested at various doses in SNU-449 cells. Cultured SNU-449 cells at a density of 10,000 cells per well were treated using free uptake with modified oligonucleotides diluted to concentrations described in the tables below. After approximately 48 hours, Yap1 mRNA levels were measured as previously described using the Human Yap1 primer-probe set RTS36584. Yap1 mRNA levels were normalized to total RNA content, as measured by RIBOGREEN®. Results are presented in the tables below as percent control of the amount of Yap1 mRNA relative to untreated control cells (% UTC). IC50s were calculated using a linear regression on a log/linear plot of the data in excel.

| Substance | % UTC (Yap1 mRNA) (31.3 nM) | % UTC (Yap1 mRNA) (125.0 nM) | % UTC (Yap1 mRNA) (500.0 nM) | % UTC (Yap1 mRNA) (2000.00 nM) | IC50 |
| --- | --- | --- | --- | --- | --- |
| 1198289 (kG*kG*kA*dA*dA*dT*dT*dG*dT*d[5mC]*dT*d[5mC]*kA*eT*kG*e[5mC]; antisense) [compound 1198289] | 72 % UTC | 41 % UTC | 18 % UTC | 9 % UTC | 100 nM |
| 1200820 (kG*kG*kA*dA*dG*mA*dT*d[5mC]*dT*dG*dA*dA*dA*k[5mC]*kT*k[5mC]; antisense) [compound 1200820] | 104 % UTC | 69 % UTC | 36 % UTC | 17 % UTC | 300 nM |
| 1198664 (kG*k[5mC]*dT*dT*dT*dG*dG*dA*dA*dG*dA*dT*k[5mC]*eT*kG*eA; antisense) [compound 1198664] | 52 % UTC | 33 % UTC | 14 % UTC | 5 % UTC | < 30 nM |
| 1198460 (kG*kA*dA*dA*dT*dT*dG*dT*d[5mC]*dT*d[5mC]*eA*kT*eG*k[5mC]*e[5mC]; antisense) [compound 1198460] | 60 % UTC | 49 % UTC | 28 % UTC | 11 % UTC | 100 nM |
| 1197178 (kA*kA*kT*dT*dG*dT*d[5mC]*dT*d[5mC]*dA*dT*dG*d[5mC]*k[5mC]*kT*kT; antisense) [compound 1197178] | 64 % UTC | 36 % UTC | 14 % UTC | 4 % UTC | 100 nM |
| 1198510 (k[5mC]*kT*d[5mC]*dT*dT*dA*dT*dA*dT*dG*dG*eT*kT*eT*kT*eG; antisense) [compound 1198510] | 71 % UTC | 44 % UTC | 18 % UTC | 6 % UTC | 100 nM |
| 1198578 (GCTTTGGAAGATCTGA; modified gapmer, chemistry not fully specified) [compound 1198578] | 73 % UTC | 45 % UTC | 25 % UTC | 12 % UTC | 100 nM |
| 1198524 (kT*kG*dT*dA*dT*dG*dT*d[5mC]*dA*dG*dA*eA*kG*eA*kG*eT; antisense) [compound 1198524] | 50 % UTC | 32 % UTC | 9 % UTC | 3 % UTC | < 30 nM |
| 1197312 (kT*kG*kT*dA*mU*dG*dT*d[5mC]*dA*dG*dA*dA*dG*kA*kG*kT; antisense) [compound 1197312] | 101 % UTC | 58 % UTC | 34 % UTC | 11 % UTC | 300 nM |
| 1198624 (kA*k[5mC]*kT*dA*dA*dG*dT*dA*dA*dG*dG*dT*kT*kT*k[5mC]*e[5mC]; antisense) [compound 1198624] | 62 % UTC | 37 % UTC | 21 % UTC | 9 % UTC | 100 nM |
| 1200798 (kT*kA*kT*dT*dA*mG*dA*dG*dT*dA*dT*dG*dT*kG*kG*k[5mC]; antisense) [compound 1200798] | 77 % UTC | 44 % UTC | 17 % UTC | 7 % UTC | 100 nM |
| 1198492 (kG*k[5mC]*dT*dT*dT*dG*dG*dA*dA*dG*dA*eT*k[5mC]*eT*kG*eA; antisense) [compound 1198492] | 67 % UTC | 39 % UTC | 19 % UTC | 10 % UTC | 100 nM |
| 1198917 (k[5mC]*kA*d[5mC]*dT*dT*dT*dT*dA*d[5mC]*dA*dT*kT*dA*kG*dG*kA; antisense) [compound 1198917] | 81 % UTC | 37 % UTC | 12 % UTC | 6 % UTC | 100 nM |
| 1198352 (kT*kG*kT*dA*dT*dG*dT*d[5mC]*dA*dG*dA*dA*kG*eA*kG*eT; antisense) [compound 1198352] | 58 % UTC | 29 % UTC | 10 % UTC | 3 % UTC | 40 nM |
| 1198354 (kA*kA*kG*dT*dG*dT*dA*dT*dG*dT*d[5mC]*dA*kG*eA*kA*eG) [compound 1198354] | 66 % UTC | 24 % UTC | 5 % UTC | 1 % UTC | 50 nM |
| 1009325 (kA*kG*kA*dG*dT*dA*dT*dG*dT*dG*dG*d[5mC]*dA*kA*kT*kA; antisense) [compound 1009325] | 59 % UTC | 36 % UTC | 16 % UTC | 4 % UTC | 100 nM |
| 1198528 (kT*kA*dA*dA*dG*dT*dG*dT*dA*dT*dG*eT*k[5mC]*eA*kG*eA; antisense) [compound 1198528] | 87 % UTC | 54 % UTC | 30 % UTC | 11 % UTC | 200 nM |
| 1197309 (kG*kT*kA*dA*mU*dA*dT*dT*dG*d[5mC]*dA*dA*dT*k[5mC]*kT*kG; antisense) [compound 1197309] | 91 % UTC | 63 % UTC | 30 % UTC | 9 % UTC | 200 nM |
| 1198526 (kA*kA*dG*dT*dG*dT*dA*dT*dG*dT*d[5mC]*eA*kG*eA*kA*eG; antisense) [compound 1198526] | 61 % UTC | 30 % UTC | 8 % UTC | 2 % UTC | 40 nM |
| 1074462 (kG*kG*kA*dA*dA*dT*dT*dG*dT*d[5mC]*dT*d[5mC]*dA*kT*kG*k[5mC]; antisense) [compound 1074462] | 90 % UTC | 38 % UTC | 13 % UTC | 3 % UTC | 100 nM |
| 1198904 (kT*kA*dT*dT*dA*dG*dA*dG*dT*dA*dT*kG*dT*kG*dG*k[5mC]; antisense) [compound 1198904] | 78 % UTC | 36 % UTC | 23 % UTC | 10 % UTC | 100 nM |
| 1198297 (kA*kT*kT*dA*dG*dA*dG*dT*dA*dT*dG*dT*kG*eG*k[5mC]*eA) [compound 1198297] | 67 % UTC | 42 % UTC | 16 % UTC | 7 % UTC | 100 nM |
| 1198422 (k[5mC]*dT*dT*dA*dT*dA*dT*dG*dG*dT*dT*kT*eT*kG*eT*kG) [compound 1198422] | 88 % UTC | 60 % UTC | 30 % UTC | 19 % UTC | 200 nM |
| 1198213 (kA*kT*dA*dT*dT*dA*dG*dA*dG*dT*dA*eT*eG*eT*kG*kG) [compound 1198213] | 91 % UTC | 33 % UTC | 11 % UTC | 3 % UTC | 100 nM |
| 1198786 (kT*eG*kT*dA*dT*dG*dT*d[5mC]*dA*dG*dA*dA*eG*eA*kG*kT) [compound 1198786] | 63 % UTC | 32 % UTC | 11 % UTC | 2 % UTC | 100 nM |
